The results in this text go back to patent publication US20250205342A1, “IRAK DEGRADERS AND USES THEREOF” (Kymera Therapeutics, Inc., priority 2022, published 2025).

The target of test [1] is T1, IRAK4 (Homo sapiens, UniProt Q9NWZ3).
T1 sequence (Q9NWZ3 1-460): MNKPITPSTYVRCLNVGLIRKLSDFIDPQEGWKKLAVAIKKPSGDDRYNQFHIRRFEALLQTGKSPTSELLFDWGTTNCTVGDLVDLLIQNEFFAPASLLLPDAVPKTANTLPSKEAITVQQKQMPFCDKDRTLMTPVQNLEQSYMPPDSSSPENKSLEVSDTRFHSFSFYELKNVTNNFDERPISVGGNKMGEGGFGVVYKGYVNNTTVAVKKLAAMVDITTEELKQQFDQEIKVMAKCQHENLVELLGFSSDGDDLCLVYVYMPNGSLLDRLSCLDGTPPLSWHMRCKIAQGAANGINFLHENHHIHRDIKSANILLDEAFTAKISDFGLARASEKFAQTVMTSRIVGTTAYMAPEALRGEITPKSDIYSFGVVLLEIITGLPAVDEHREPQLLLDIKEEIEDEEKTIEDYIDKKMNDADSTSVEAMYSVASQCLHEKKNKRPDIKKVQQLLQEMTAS
The test can be described thus: hPBMC IRAK4 degradation flow assay (monocytes). In kind it is cell-based. Details: endogenous in cells; host or cells: human PBMCs (monocytes, CD14 positive gate). To be noted: CD14 positive monocytes, 20 h, read-out: hPBMC monocyte DC50 at 20 h. A digest of the protocol:
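Thawed human PBMCs treated 20 h (or 4 h) at 37° C. with 10-point 5-fold compound dilutions, 0.1% DMSO, then fixed, methanol-permeabilized and stained for IRAK4 and lineage markers by flow, with monocytes gated CD14+. IRAK4 MFI normalized to DMSO and 10 µM control; DC50 and max degradation from 4-parameter logistic fit.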

Test [2] concerns the target T1, IRAK4. Put plainly: IRAK4 degradation in OCI-LY10 (MSD, Meso Scale Discovery). In kind it is cell-based. Details: endogenous in cells; host or cells: OCI-LY10. To be noted: OCI-LY10 cells, 24 h. A digest of the protocol: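 OCI-LY10 cells (300,000/well) were treated with an 8-point 1:3 series (top 1 to 10 μM) for 4 to 24 h at 37 °C. IRAK4 in RIPA lysates was quantified by MSD sandwich immunoassay with two anti-IRAK4 antibodies. DC50 was fitted with a three-parameter logistic equation.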

`COc1cc2nn([C@H]3CC[C@H](CNCCOCCOCCOc4cncc(N5CCC[C@H](C(=O)Nc6ccc(=O)n(CC(=O)O)c6)C5)c4)CC3)cc2cc1NC(=O)c1cccc(C(F)(F)F)n1` [Compound I-40]: the DC50 on IRAK4 [1] and on IRAK4 [2] was above 10 µM in each case.

For `CCOC(=O)Cn1cc(NC(=O)c2ccc(-c3ccc(CCCCCCCCCNC[C@H]4CC[C@H](n5cc(NC(=O)c6cnn7ccc(N8C[C@H]9C[C@@H]8CO9)nc67)c(C(F)F)n5)CC4)cc3)cc2OC)ccc1=O` [Compound I-67], the DC50 at IRAK4 [1] and at IRAK4 [2] was above 10 µM in each case.

On to `CCOC(=O)Cn1cc(NC(=O)[C@H]2CCCN(c3cncc(OCCOCCOCCOCCOCCNC[C@H]4CC[C@H](n5cc(NC(=O)c6cnn7ccc(N8C[C@H]9C[C@@H]8CO9)nc67)c(C(F)F)n5)CC4)c3)C2)ccc1=O` [Compound I-47], for which the DC50 at IRAK4 [1] and at IRAK4 [2] was above 10 µM throughout.

As to `CCOC(=O)Cn1cc(NC(=O)[C@H]2CCCN(c3cncc(CCCCCCNC[C@H]4CC[C@H](n5cc(NC(=O)c6cnn7ccc(N8C[C@H]9C[C@@H]8CO9)nc67)c(C(F)F)n5)CC4)c3)C2)ccc1=O` [Compound I-32], the DC50 at IRAK4 [1] and at IRAK4 [2] was above 10 µM in each case.

For `COC(=O)Cn1cc(NC(=O)c2cccc(-c3cncc4c(CCCCCCCCCNC[C@H]5CC[C@H](n6cc7cc(NC(=O)c8cccc(C(F)(F)F)n8)c(C(C)(C)O)cc7n6)CC5)cccc34)c2)ccc1=O` [Compound I-54], the DC50 on IRAK4 [1] and on IRAK4 [2] was 1 to 10 µM in each case.

Consider `CC(C)(O)c1cc2nn([C@H]3CC[C@H](CNCCCCCCc4ccc5c(-c6cccc(C(=O)Nc7ccc(=O)n(CC(=O)O)c7)c6)cncc5c4)CC3)cc2cc1NC(=O)c1cccc(C(F)(F)F)n1` [Compound I-52], for which the DC50 at IRAK4 [1] and at IRAK4 [2] was above 10 µM in each case.

In the case of `COc1cc2nn([C@H]3CC[C@H](CNCCOc4cncc(N5CCC[C@H](C(=O)Nc6ccc(=O)n(CC(=O)O)c6)C5)c4)CC3)cc2cc1NC(=O)c1cccc(C(F)(F)F)n1` [Compound I-29], the DC50 on IRAK4 [1] and on IRAK4 [2] was above 10 µM throughout.

For `O=C(O)Cn1cc(NC(=O)[C@H]2CCCN(c3cncc(C#CCOC4CCN(C[C@H]5CC[C@H](n6cc(NC(=O)c7cnn8ccc(N9C[C@H]%10C[C@@H]9CO%10)nc78)c(C(F)F)n6)CC5)CC4)c3)C2)ccc1=O` [Compound I-11], the DC50 at IRAK4 [1] and on IRAK4 [2] was above 10 µM each time.

In the case of `CCOC(=O)Cn1cc(NC(=O)[C@H]2CCCN(c3cncc(NCCOCCOCCOCCOCCNC[C@H]4CC[C@H](n5cc6cc(NC(=O)c7cccc(C(F)(F)F)n7)c(OC)cc6n5)CC4)c3)C2)ccc1=O` [Compound I-13], the 50% degradation concentration (DC50) on IRAK4 [1] was 1 to 10 µM; at IRAK4 [2], above 10 µM.

`COC(=O)Cn1cc(NC(=O)c2cccc(-c3cncc4cc(CCCCCCCCCNC[C@H]5CC[C@H](n6cc7cc(NC(=O)c8cccc(C(F)(F)F)n8)c(C(C)(C)O)cc7n6)CC5)ccc34)c2)ccc1=O` [Compound I-55]: the DC50 on IRAK4 [1] and at IRAK4 [2] was above 10 µM throughout.

Regarding `CC(C)(O)c1cc2nn([C@H]3CC[C@H](CNCCCn4ccc5c(C(=O)Nc6ccc(=O)n(CC(=O)O)c6)cccc54)CC3)cc2cc1NC(=O)c1cccc(C(F)(F)F)n1` [Compound I-78], the DC50 on IRAK4 [1] and on IRAK4 [2] was above 10 µM throughout.

Consider `CC(C)(O)c1cc2nn([C@H]3CC[C@H](CNCCCCCCCCCc4cccc5c(-c6cccc(C(=O)Nc7ccc(=O)n(CC(=O)O)c7)c6)cncc45)CC3)cc2cc1NC(=O)c1cccc(C(F)(F)F)n1` [Compound I-50], for which the DC50 on IRAK4 [1] and on IRAK4 [2] was above 10 µM in each case.

As for `COc1cc(-c2ccc(F)c(CCCCCCCCCNC[C@H]3CC[C@H](n4cc5cc(NC(=O)c6cccc(C(F)(F)F)n6)c(C(C)(C)O)cc5n4)CC3)c2)ccc1C(=O)Nc1ccc(=O)n(CC(=O)O)c1` [Compound I-63], the DC50 on IRAK4 [1] and at IRAK4 [2] was above 10 µM in each case.

Take `CCOC(=O)Cn1cc(NC(=O)[C@H]2CCCN(c3cncc(NCCOCCOCCNC[C@H]4CC[C@H](n5cc(NC(=O)c6cnn7ccc(N8C[C@H]9C[C@@H]8CO9)nc67)c(C(F)F)n5)CC4)c3)C2)ccc1=O` [Compound I-15]: the DC50 at IRAK4 [1] and at IRAK4 [2] was above 10 µM each time.

Take `O=C(O)Cn1cc(NC(=O)c2cccc(-c3cncc(CCCCCCNC[C@H]4CC[C@H](n5cc(NC(=O)c6cnn7ccc(N8C[C@H]9C[C@@H]8CO9)nc67)c(C(F)F)n5)CC4)c3)c2)ccc1=O` [Compound I-92]: the 50% degradation concentration (DC50) at IRAK4 [1] and at IRAK4 [2] was above 10 µM throughout.

Regarding `CCOC(=O)Cn1cc(NC(=O)c2cccc(-c3cncc(CCCNC[C@H]4CC[C@H](n5cc6cc(NC(=O)c7cccc(C(F)(F)F)n7)c(C(C)(C)O)cc6n5)CC4)c3)c2)ccc1=O` [Compound I-90], the DC50 at IRAK4 [1] and at IRAK4 [2] was above 10 µM each time.

On to `CCOC(=O)Cn1cc(NC(=O)c2cccc(-c3cncc(CCCCCCNC[C@H]4CC[C@H](n5cc(NC(=O)c6cnn7ccc(N8C[C@H]9C[C@@H]8CO9)nc67)c(C(F)F)n5)CC4)c3)c2)ccc1=O` [Compound I-99], for which the DC50 on IRAK4 [1] and on IRAK4 [2] was above 10 µM throughout.

Take `CCOC(=O)Cn1cc(NC(=O)c2cccc3c2ccn3CCCCCCCCCNC[C@H]2CC[C@H](n3cc4cc(NC(=O)c5cccc(C(F)(F)F)n5)c(C(C)(C)O)cc4n3)CC2)ccc1=O` [Compound I-69]: the DC50 at IRAK4 [1] and at IRAK4 [2] was 0.1 to 1 µM throughout.
